We go through 34 molecules from US11945796B2, “Substituted pyridine derivatives as SARM1 inhibitors” (Nura Bio, Inc., priority 2020, dated 2024).

For this assay, the target named is T1, human SARM1(50-724) (Homo sapiens, UniProt Q6SZW1).
T1 construct: 40 nM human SARM1(50-724)
T1 sequence (Q6SZW1 50-724): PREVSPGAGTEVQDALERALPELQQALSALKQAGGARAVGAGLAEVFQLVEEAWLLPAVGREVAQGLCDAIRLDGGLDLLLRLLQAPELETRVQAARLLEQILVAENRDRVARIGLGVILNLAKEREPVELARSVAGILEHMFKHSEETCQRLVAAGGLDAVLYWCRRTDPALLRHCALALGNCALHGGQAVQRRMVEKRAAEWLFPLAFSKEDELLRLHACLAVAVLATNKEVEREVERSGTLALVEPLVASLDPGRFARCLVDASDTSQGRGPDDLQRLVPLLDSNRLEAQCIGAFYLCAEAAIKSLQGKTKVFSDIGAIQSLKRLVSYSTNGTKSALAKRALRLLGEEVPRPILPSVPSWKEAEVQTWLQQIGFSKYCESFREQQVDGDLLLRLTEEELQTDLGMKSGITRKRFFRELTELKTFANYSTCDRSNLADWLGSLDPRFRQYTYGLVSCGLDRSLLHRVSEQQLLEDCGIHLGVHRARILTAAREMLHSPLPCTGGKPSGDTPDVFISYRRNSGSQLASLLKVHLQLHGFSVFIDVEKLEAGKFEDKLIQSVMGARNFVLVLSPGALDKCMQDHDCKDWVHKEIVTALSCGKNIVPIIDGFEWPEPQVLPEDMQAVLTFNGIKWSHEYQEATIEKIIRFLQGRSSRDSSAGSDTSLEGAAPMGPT
As to the kind of experiment: SARM1 NADase biochemical assay (HPLC peak areas of NAD and NAM). The conditions noted are these: for IC50: dose-response, 1:3 serial dilution from 100 μM, 40 nM SARM1, 0.3 mM NMN, 20 μM NAD, 60 min rt. Here is the method:
The reaction was incubated at room temperature for 60 minutes and quenched with 20 μL of 0.4% formic acid. […] Total run time for each sample was 4 minutes. […] Samples were run at a flow rate of 0.8 mL/min at 55° C. Peak areas of NAD and NAM were determined using OpenLAB CDS (Chem Station edition) software. For dose-response, the compound was diluted serially 1:3 in DMSO and added to the reaction starting at a final compound concentration of 100 μM in 1% DMSO.

Setting [1] is: read-out: Avg NAD % inhibition at 50 μM.
Where [2] appears, read: read-out: Avg NAM % inhibition at 50 μM.
Setting [3] is: 50 μM compound, NAD peak area, read-out: Avg NAD % inhibition at 50 μM.
The mark [4] stands for this setting: 50 μM compound, NAM peak area, read-out: Avg NAM % inhibition at 50 μM.

Molecules are shown by their SMILES. Like-named read-outs stand apart in the source and are kept apart here.

The term IC50 denotes the concentration that gives 50% inhibition. A higher IC50 goes with lower potency. For the molecule `O=C(Nc1ccn(Cc2ccncc2)n1)c1cccc(Cl)c1` [Example 54, 3-Chloro-N-(1-(pyridin-4-ylmethyl)-1H-pyrazol-3-yl)benzamide], the IC50 was 10 to 100 µM.

As usually defined, the inhibition is the share of the control response that was lost under treatment. Take `O=C(Nc1ccn(Cc2ccncc2)n1)c1ccc(Cl)cc1` [Example 55, 4-Chloro-N-(1-(pyridin-4-ylmethyl)-1H-pyrazol-3-yl)benzamide]: the inhibition at 50 µM is, setting by setting: under setting [1], 51 to 100%; under setting [2], 51 to 100%. In the case of `O=C(Nc1ccn(Cc2ccncc2)n1)c1ccccc1C(F)(F)F` [Example 56, N-(1-(Pyridin-4-ylmethyl)-1H-pyrazol-3-yl)-2-(trifluoromethyl)benzamide], the inhibition at 50 µM under setting [3] lay in the range of 0 to 50% and the inhibition at 50 µM under setting [4] fell in the range of 0 to 50%. With `O=C(Nc1ccn(Cc2ccncc2)n1)c1ccc(C(F)(F)F)cc1` [Example 57, N-(1-(Pyridin-4-ylmethyl)-1H-pyrazol-3-yl)-4-(trifluoromethyl)benzamide], the inhibition at 50 µM under setting [3] is 0 to 50% and the inhibition at 50 µM under setting [4] lay in the range of 0 to 50%. For `O=C(Nc1ccn(Cc2ccncc2)n1)c1ccccc1F` [Example 58, 2-Fluoro-N-(1-(pyridin-4-ylmethyl)-1H-pyrazol-3-yl)benzamide], the inhibition at 50 µM was in the range of 0 to 50% under setting [3] and 0 to 50% under setting [4]. As for `O=C(Nc1ccn(Cc2ccncc2)n1)c1cccc(F)c1` [Example 59, 3-Fluoro-N-(1-(pyridin-4-ylmethyl)-1H-pyrazol-3-yl)benzamide], the inhibition at 50 µM under setting [3] fell in the range of 0 to 50% and the inhibition at 50 µM under setting [4] lay in the range of 0 to 50%.

For `O=C(Nc1ccn(Cc2ccncc2)n1)c1ccccn1` [Example 61, N-(1-(Pyridin-4-ylmethyl)-1H-pyrazol-3-yl)picolinamide], the inhibition at 50 µM was 0 to 50% under setting [3] and 0 to 50% under setting [4]. For `O=C(Nc1ccn(Cc2ccncc2)n1)c1cccnc1` [Example 62, N-(1-(Pyridin-4-ylmethyl)-1H-pyrazol-3-yl)nicotinamide], the inhibition at 50 µM under setting [1] was 0 to 50% and the inhibition at 50 µM under setting [2] lay in the range of 0 to 50%. In turn, `O=C(Nc1ccn(Cc2ccncc2)n1)C1COc2ccccc2C1` (stereo not drawn) [Example 63, N-(1-(Pyridin-4-ylmethyl)-1H-pyrazol-3-yl)chromane-3-carboxamide] came in with an IC50 of 1 to 10 µM. As for `COc1ccc(C(=O)Nc2ccn(Cc3ccncc3)n2)s1` [Example 64, 5-Methoxy-N-(1-(pyridin-4-ylmethyl)-1H-pyrazol-3-yl)thiophene-2-carboxamide], the inhibition at 50 µM runs as follows: under setting [3], 0 to 50%; under setting [4], 0 to 50%. In turn, `O=C(Nc1ccn(Cc2ccncc2)n1)c1cc(Br)cs1` [Example 65, 4-Bromo-N-(1-(pyridin-4-ylmethyl)-1H-pyrazol-3-yl)thiophene-2-carboxamide] gave a half-inhibitory concentration (IC50) of 10 to 100 µM. For the same molecule, under setting [3], the inhibition at 50 µM is 51 to 100%. Under setting [4], the inhibition at 50 µM lay in the range of 51 to 100%. As for `O=C(Nc1ccn(Cc2ccncc2)n1)c1csc(Cl)c1` [Example 66, 5-Chloro-N-(1-(pyridin-4-ylmethyl)-1H-pyrazol-3-yl)thiophene-3-carboxamide], the IC50 lay within 1 to 10 µM. For `Cc1cc(C(=O)Nc2ccn(Cc3ccncc3)n2)cs1` [Example 67, 5-Methyl-N-(1-(pyridin-4-ylmethyl)-1H-pyrazol-3-yl)thiophene-3-carboxamide], the inhibition at 50 µM reads like this: under setting [3], 51 to 100%; under setting [4], 0 to 50%. Take `O=C(Nc1ccn(Cc2ccncc2)n1)C(F)(F)F` [Example 68, 2,2,2-Trifluoro-N-(1-(pyridin-4-ylmethyl)-1H-pyrazol-3-yl)acetamide]: the IC50 is 10 to 100 µM. In the case of `O=C(Nc1ccn(Cc2ccncc2)n1)c1ccccc1` [Example 69, N-(1-(Pyridin-4-ylmethyl)-1H-pyrazol-3-yl)benzamide], the inhibition at 50 µM reads like this: under setting [1], 51 to 100%; under setting [2], 51 to 100%. For `O=S(=O)(Nc1ccn(Cc2ccncc2)n1)c1ccccc1` [Example 70, N-(1-(Pyridin-4-ylmethyl)-1H-pyrazol-3-yl)benzenesulfonamide], the inhibition at 50 µM by setting is: under setting [1], 51 to 100%; under setting [2], 51 to 100%. Regarding `O=S(=O)(Cc1ccccc1)Nc1ccn(Cc2ccncc2)n1` [Example 71, 1-Phenyl-N-(1-(pyridin-4-ylmethyl)-1H-pyrazol-3-yl)methanesulfonamide], the inhibition at 50 µM reads like this: under setting [3], 0 to 50%; under setting [4], 0 to 50%.

`CC1(C)Oc2ccc(C(=O)Nc3ccn(Cc4ccncc4)n3)cc2O1` [Example 72, 2,2-Dimethyl-N-(1-(pyridin-4-ylmethyl)-1H-pyrazol-3-yl)benzo[d][1,3]dioxole-5-carboxamide]: the inhibition at 50 µM runs as follows: under setting [3], 0 to 50%; under setting [4], 0 to 50%.

As for `O=C(Nc1ccn(Cc2ccncc2)n1)c1ccc(O)c(O)c1` [Example 73, 3,4-Dihydroxy-N-(1-(pyridin-4-ylmethyl)-1H-pyrazol-3-yl)benzamide], the inhibition at 50 µM under setting [3] lay in the range of 51 to 100%. Turning to `COc1ccc(S(=O)(=O)Nc2ccn(Cc3ccncc3)n2)cc1` [Example 74, 4-Methoxy-N-(1-(pyridin-4-ylmethyl)-1H-pyrazol-3-yl)benzenesulfonamide], the IC50 was in the range of 1 to 10 µM. Turning to `COc1ccc(S(=O)(=O)N(C)c2ccn(Cc3ccncc3)n2)cc1` [Example 75, 4-Methoxy-N-methyl-N-(1-(pyridin-4-ylmethyl)-1H-pyrazol-3-yl)benzenesulfonamide], the inhibition at 50 µM is, setting by setting: under setting [1], 0 to 50%; under setting [2], 0 to 50%. Turning to `O=S(=O)(Nc1ccn(Cc2ccncc2)n1)c1cccc(F)c1` [Example 76, 3-Fluoro-N-(1-(pyridin-4-ylmethyl)-1H-pyrazol-3-yl)benzenesulfonamide], the IC50 lay within 1 to 10 µM. Also, under setting [3], the inhibition at 50 µM lay in the range of 0 to 50%. Moreover, the inhibition at 50 µM under setting [4] is 0 to 50%. `CN(c1ccn(Cc2ccncc2)n1)S(=O)(=O)c1cccc(F)c1` [Example 77, 3-Fluoro-N-methyl-N-(1-(pyridin-4-ylmethyl)-1H-pyrazol-3-yl)benzenesulfonamide]: the inhibition at 50 µM lay in the range of 0 to 50% under setting [1] and 0 to 50% under setting [2]. `Cc1cc(Cc2ccncc2)nn1CC(F)(F)F` [Example 83, 4-((5-Methyl-1-(2,2,2-trifluoroethyl)-1H-pyrazol-3-yl)methyl)pyridine] came in with a half-inhibitory concentration (IC50) of 10 to 100 µM.

`Cc1cnccc1Cn1ccc(NCC(F)(F)F)n1` [Example 84, 1-((3-Methylpyridin-4-yl)methyl)-N-(2,2,2-trifluoroethyl)-1H-pyrazol-3-amine] showed an IC50 of 10 to 100 µM. Regarding `CCNc1ccn(Cc2ccncc2)n1` [Example 85, N-Ethyl-1-(pyridin-4-ylmethyl)-1H-pyrazol-3-amine], the inhibition at 50 µM by setting is: under setting [1], 0 to 50%; under setting [2], 0 to 50%.

With `CNc1ccn(Cc2ccncc2)n1` [Example 86, N-Methyl-1-(pyridin-4-ylmethyl)-1H-pyrazol-3-amine], the inhibition at 50 µM is, setting by setting: under setting [3], 0 to 50%; under setting [4], 0 to 50%. Consider `CC(=O)Nc1ccn(Cc2ccncc2)n1` [Example 87, N-(1-(Pyridin-4-ylmethyl)-1H-pyrazol-3-yl)acetamide], for which the inhibition at 50 µM by setting is: under setting [1], 0 to 50%; under setting [2], 0 to 50%. On to `O=S(=O)(Nc1ccn(Cc2ccncc2)n1)C(F)(F)F` [Example 88, 1,1,1-Trifluoro-N-(1-(pyridin-4-ylmethyl)-1H-pyrazol-3-yl)methanesulfonamide], for which the inhibition at 50 µM lay within 0 to 50% under setting [3] and 0 to 50% under setting [4]. As for `C[C@H](c1ccncc1)n1ccc(NCC(F)(F)F)n1` [Example 89, (R)-1-(1-(Pyridin-4-yl)ethyl)-N-(2,2,2-trifluoroethyl)-1H-pyrazol-3-amine], the IC50 lay in the range of 10 to 100 µM. `CN(CC(F)(F)F)c1ccn(Cc2ccncc2)n1` [Example 90, N-Methyl-1-(pyridin-4-ylmethyl)-N-(2,2,2-trifluoroethyl)-1H-pyrazol-3-amine] gave a half-inhibitory concentration (IC50) of 10 to 100 µM. Regarding `c1cc(Cn2ccc(NCC3CC3)n2)ccn1` [Example 93, N-(Cyclopropylmethyl)-1-(pyridin-4-ylmethyl)-1H-pyrazol-3-amine], the inhibition at 50 µM reads like this: under setting [3], 0 to 50%; under setting [4], 0 to 50%.

As for `CCCNc1ccn(Cc2ccncc2)n1` [Example 94, N-Propyl-1-(pyridin-4-ylmethyl)-1H-pyrazol-3-amine], the inhibition at 50 µM is, setting by setting: under setting [3], 0 to 50%; under setting [4], 0 to 50%. As for `c1cc(Cn2ccc(NCC3CCC3)n2)ccn1` [Example 95, N-(Cyclobutylmethyl)-1-(pyridin-4-ylmethyl)-1H-pyrazol-3-amine], the inhibition at 50 µM runs as follows: under setting [3], 0 to 50%; under setting [4], 0 to 50%.
